Experimental findings from ChEMBL document CHEMBL1127393 (J Med Chem, 1994) are described below.

The structures appear in SMILES notation.

Experiment [1] has as its target T1, Gastrin/cholecystokinin type B receptor (Rattus norvegicus, UniProt P30553).
T1 sequence (P30553 whole entry): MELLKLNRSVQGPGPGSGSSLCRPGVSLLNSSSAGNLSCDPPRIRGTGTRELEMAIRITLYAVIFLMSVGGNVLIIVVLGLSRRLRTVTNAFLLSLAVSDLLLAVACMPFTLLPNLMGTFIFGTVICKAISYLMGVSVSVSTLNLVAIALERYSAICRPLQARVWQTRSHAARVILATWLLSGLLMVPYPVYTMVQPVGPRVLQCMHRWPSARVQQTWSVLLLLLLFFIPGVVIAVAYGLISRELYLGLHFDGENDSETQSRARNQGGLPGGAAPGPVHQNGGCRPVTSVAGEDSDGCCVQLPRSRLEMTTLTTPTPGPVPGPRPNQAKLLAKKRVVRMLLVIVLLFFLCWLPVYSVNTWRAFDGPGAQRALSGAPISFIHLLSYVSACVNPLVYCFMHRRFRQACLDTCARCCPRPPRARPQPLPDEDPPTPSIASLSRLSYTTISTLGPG
The experiment is described as follows: Tested for the 50% inhibition level against [125I]- gastrin binding in AR42J cells. It counts as cell-based, AR-42J.

Experiment [2] is described as follows: Tested for the 50% inhibition level against [125I]- gastrin binding to guinea pig gastric glands. It counts as functional, tissue-based, Cavia porcellus, Stomach.

For `O=C(CCC(=O)N(Cc1ccccc1)/N=N/CCCl)NCCC(=O)NC(Cc1c[nH]c2ccccc12)C(=O)O` (stereo not drawn), the EC50 in experiment [1] was 200 µM; in experiment [2], 63 µM.
`CSCC[C@H](NC(=O)[C@H](Cc1c[nH]c2ccccc12)NC(=O)CNC(=O)[C@H](Cc1ccc(O)cc1)NC(=O)[C@H](C)NC(=O)[C@H](CCC(=O)O)NC(=O)[C@H](CCC(=O)O)NC(=O)[C@H](CCC(=O)O)NC(=O)[C@H](CCC(=O)O)NC(=O)[C@H](CCC(=O)O)NC(=O)[C@H](CC(C)C)NC(=O)[C@H](Cc1c[nH]c2ccccc12)NC(=O)[C@@H]1CCCN1C(=O)CNC(=O)[C@@H](N)CCC(=O)O)C(=O)N[C@@H](CC(=O)O)C(=O)N[C@@H](Cc1ccccc1)C(N)=O` [GASTRIN] came in with a concentration giving a half-maximal response (EC50) in experiment [2] of 0.6 µM. In other words, the sub-micromolar range.
